Measured values taken from patent US20120135089A1, “E3 LIGASE INHIBITORS” (priority 2009, published 2012).
Where “and” joins values, the source holds several entries; their conditions need not be identical. Identical values can stand only once. Like-named read-outs stand apart in the source and are kept apart here.

Experiments:
[1] = molecular target: T1, Mdm2-luciferase fusion protein (Homo sapiens, UniProt Q00987); assay: cell-based Mdm2 auto-ubiquitination luminescence assay, Mdm2-luciferase cell line; settings: for luminescence of the Mdm2-luciferase cell line: 384-well format; for EC50: 2 hours treatment
T1 construct: Using full-length Mdm2 allowed for the presence of all domains of Mdm2; expressed in transfected cells
T1 sequence (Q00987 whole entry, the tested form may be a part): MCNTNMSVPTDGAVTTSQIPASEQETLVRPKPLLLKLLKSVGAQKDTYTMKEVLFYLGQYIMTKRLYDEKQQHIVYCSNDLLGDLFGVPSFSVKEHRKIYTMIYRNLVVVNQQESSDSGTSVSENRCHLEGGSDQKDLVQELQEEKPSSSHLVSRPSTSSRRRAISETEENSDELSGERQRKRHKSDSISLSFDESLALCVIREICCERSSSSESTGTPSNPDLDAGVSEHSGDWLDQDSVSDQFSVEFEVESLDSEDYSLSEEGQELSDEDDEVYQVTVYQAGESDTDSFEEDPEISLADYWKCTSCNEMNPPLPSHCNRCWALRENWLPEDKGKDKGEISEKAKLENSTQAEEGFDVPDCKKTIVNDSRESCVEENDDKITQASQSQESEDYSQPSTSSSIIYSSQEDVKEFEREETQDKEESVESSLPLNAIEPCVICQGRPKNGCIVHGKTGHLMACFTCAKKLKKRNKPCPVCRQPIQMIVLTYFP
Protocol: (§1) Cells were plated in 384-well format and treated with MG132 (2 hours) or cycloheximide (30 minutes). Steadylite luminescence buffer (PerkinElmer) was added and the relative luminescence levels determined on a Victor3 Plate Reader. Each graph represents the median of 5 replicates normalized to a no treatment control, and one standard deviation is shown. […] The graphs and EC50 values were determined using Graphpad PRISM®. […] U2OS, RKO, and HCT116 cells (p53 wild-type) were incubated with 5 μg/ml (14 μM) of MEL23, 5 μg/ml (15 μM) of MEL24, or 10 μM of MG132 for 6 hours. Cells were lysed and analyzed by Western blotting using anti-Mdm2, anti-p53, and anti-eIF4E antibodies. NT indicates a no treatment control. […] MCF7 cells (p53 wild-type) were incubated with 30 μg/ml (51 μM) etoposide alone or in combination with 50 μM AlIn or 5 μg/ml (14 μM) MEL23, or 5 μg/ml (15 μM) MEL24 for 16 hours. Cells were lysed and analyzed by Western blotting using anti-MDMX and anti-actin antibodies.
The Mdm2-luciferase cell line was seeded at 7,500 cells per well, in 384-well white plates (PerkinElmer, Waltham, Mass., Cat. No. 6007688), in 27 μl of media (DMEM with FBS and P/S). Assay plates with cells were incubated at 37° C. overnight to allow cells to adhere. After 24 hours, 2 μl from the ‘mother’ plate (4 mg/ml) was transferred to a ‘daughter plate’ containing 148 μl media in order to dilute the compound 1:75. Next, 3 μl from each well of the ‘daughter plates’ was added to triplicate assay plates for a final concentration of 5.33 μg/ml. Assay plates were incubated at 37° C. for 2 hours. Then the cells were lysed with the addition of 30 μl of luminescence buffer (PerkinElmer, Cat. No. 6016989), and the plates were incubated at room temperature for 30 minutes before being analyzed on a Victor3 Plate Reader (PerkinElmer) for luminescence. […] All repurchased compounds were tested in a 2-fold dilution series via the same protocol as the primary screening. All transfers were conducted using a BioMek (Beckman Coulter, Fullerton, Calif.). […] This was determined by comparing the negative control, no treatment, to the positive control, 10 μM MG132.
To identify Mdm2 E3 ligase inhibitors, a high-throughput cellular assay to measure changes in Mdm2 auto-ubiquitination and degradation was designed. This assay took advantage of the fact that Mdm2 can regulate itself in cells through ubiquitination and degradation (8). Two fusion proteins were constructed for the assay: (a) a wild-type Mdm2-luciferase fusion protein, which can auto-ubiquitinate and thereby target itself for degradation; and (b) a mutant Mdm2(C464A)-luciferase fusion protein. Both fusion proteins were constructed with luciferase N-terminal to Mdm2. The C464A mutation disrupts a metal binding site in the RING domain, thereby preventing Mdm2 E3 ligase activity (8). Small molecules that increase the luminescence of the Mdm2-luciferase fusion protein without increasing the luminescence of the Mdm2(C464A)-luciferase fusion protein are likely inhibiting Mdm2 E3 ligase activity or the proteasomal degradation of Mdm2. Alternatively, small molecules that increase the luminescence of both fusion proteins are likely affecting transcription, translation, or have a general cellular impact that is not dependent on the E3 ligase activity of Mdm2 or proteasomal degradation.

Mdm2 and p53 levels = assay: Western blot of Mdm2 and p53 protein levels in cell lines; assay type: cell-based, human; settings: 6 hours; for Mdm2 and p53 levels: U2OS, RKO, HCT116 (p53 wild-type), 5 μg/ml; for p53 levels in RKO and RKO-E6 cells: isogenic RKO and RKO-E6 (HPV-E6) cells; for levels of endogenous and ectopically expressed Mdm2: p53-null H1299 cells
Protocol: as §1
(§2) H1229 cells were transfected with Mdm2-Flag or remained untransfected. Cells were treated with 5 μg/ml (14 μM) MEL23, 5 μg/ml (15 μM) MEL24, 10 μM MG132, or 1 μg/ml of doxorubicin for 6 hours. Cells were lysed and analyzed by Western blotting using anti-Mdm2 and anti-actin antibodies. The lower band indicated with a star seen with the Mdm2 antibody is a non-specific band. NT indicates a no treatment control. […] RKO and RK0-E6 cells were treated with 5 μg/ml (14 μM) MEL23, 5 μg/ml (15 μM) MEL24, 10 μM MG132, 0.5 μg/ml doxorubicin, 0.5 μg/ml camptothecin or 25 μg/ml Etoposide for 6 hours. Cells were lysed and analyzed by Western blotting using anti-Mdm2, anti-p53, and anti-actin antibodies. The lower band indicated with a star seen with the anti-Mdm2 antibody is a non-specific band. […] RKO cells were treated with 5 μg/ml (14 μM) MEL23, 5 μg/ml (15 μM) MEL24, 10 μM MG132 or 2 μg/ml doxorubicin for 6 hours. Cells were lysed and analyzed by Western blotting using anti-Mdm2, anti-p53, anti-phospho-Ser15 p53, and anti-eiF4E antibodies.
(§3) Cells were seeded and treated with the indicated compound(s). Cells were lysed after each time point in a buffer of 50 mM TrisHCl pH 7.5, 200 mM NaCl, 0.5% NP-40, and 1 complete mini EDTA-free protease inhibitor cocktail tablet per 10 mL of buffer (Roche, Cat. No. 8360170). Protein content was quantified using a Biorad protein assay reagent (Bio-Rad Laboratories, Hercules, Calif., Cat. No. 500-0006). SDS sample buffer was added to the samples, and the mixture was boiled for 5 minutes. Equal amounts of protein were resolved on a 1D SDS-PAGE gel. Following separation proteins were transferred to nitrocellulose membrane, blocked with 5% milk, and then incubated with primary antibody overnight at 4° C. The membrane was incubated with secondary-HRP antibody for 45 minutes at room temperature and developed with SuperSignal West Pico Substrate (Pierce, Rockford, Ill., Cat. No. 34080).
Cells were lysed and analyzed by Western blotting using anti-Mdm2, anti-p53, and anti-actin antibodies. The lower band seen with the Mdm2 antibody is a non-specific band. NT indicates no treatment control.
Referring now to FIG. 28e, endogenous Mdm2 and p53 protein levels with MEL17 treatment are shown. Briefly, U2OS, RKO, and HCT116 cells (p53 wild-type) were incubated with 5 μg/ml of MEL17 or 10 μM of MG132 for 6 hours. Cells were lysed and analyzed by Western blotting using anti-Mdm2, anti-p53, and anti-actin antibodies. The lower band seen with the Mdm2 antibody is a non-specific band.

[2] = system: p53-Ser15 phosphorylation; assay: p53-Ser15 phosphorylation in RKO cells (Western blot); assay type: cell-based, human; settings: 6 hours
Protocol: as §2, §3

| SMILES | luminescence of the Mdm2-luciferase cell line [1] | EC50 ([1]; EC50, Mdm2-luciferase cell line) | Mdm2 and p53 levels (Mdm2 and p53 levels) | p53 levels in RKO and RKO-E6 cells (Mdm2 and p53 levels) | levels of endogenous and ectopically expressed Mdm2 (Mdm2 and p53 levels) | phosphorylation of p53 at serine-15 [2] | EC50 ([1]; Mdm2-luciferase cell line, read-out: EC50 (converted)) |
| --- | --- | --- | --- | --- | --- | --- | --- |
| CCCCn1c(=O)[nH]c(O)c(C2NCCc3c2[nH]c2ccccc32)c1=O (stereo not drawn) [MEL23] | increased the luminescence of the Mdm2-luciferase cell line to a similar level as with MG132 treatment | 7.62 µM and 7.5 µM | increased | only increased levels of p53 in RKO cells | increased after treatment | lack of phosphorylation of p53 at serine-15 |  |
| Cn1c(O)c(C2NCCc3c2[nH]c2ccccc32)c(=O)n(C)c1=O (stereo not drawn) [MEL24] | increased the luminescence of the Mdm2-luciferase cell line to a similar level as with MG132 treatment |  | increased | only increased levels of p53 in RKO cells | increased after treatment | lack of phosphorylation of p53 at serine-15 | 9.19 µM and 9.2 µM |
